Reference: US10301272B2, “Carboxamide or sulfonamide substituted thiazoles and related derivatives as modulators for the orphan nuclear receptor ROR[γ]” (Phenex Pharmaceuticals AG, priority 2012, dated 2019)

molecular target: RORγ (Homo sapiens, UniProt P51449); experiment: RORγ Gal4 Reporter Gene Assay; assay type: cell-based; settings: not given
Method: Determination of a ligand mediated Gal4 promoter driven transactivation to quantify ligand binding to RORγ was performed as follows: DNA encoding three different RORγ protein fragments was cloned into vector pCMV-BD (Stratagene). Expression was under control of a CMV promoter and as fusion to the DNA-binding domain of the yeast protein GAL4. Other vectors used were pFR-Luc (Stratagene) as regulated reporter plasmid. pFR-Luc contains a synthetic promoter with five tandem repeats of the yeast GAL4 binding sites that control expression of the Photinus pyralis (American firefly) luciferase gene. In order to improve experimental accuracy the plasmid pRL-CMV was cotransfected. pRL-CMV contains the constitutive CMV promoter, controlling the expression of the Renilla reniformis luciferase.
The medium is supplemented with 10% fetal bovine serum, 0.1 mM nonessential amino acids, 1 mM sodium pyruvate, 1% Glutamax and 100 units Penicilin/[…] per mL at 37° C. in 5% CO2.
For the assay, […] were plated per well in 96 well plates in 100 μL per well, incubated over night at 37° C. in 5% CO2. […] About 4 h after addition of the transfection solution, fresh Minimal Essential Medium (MEM, same composition as used for plating cells, but without serum) was added. Then compound stocks, prediluted in MEM (same composition as used for plating cells) were added (final vehicle concentration not exceeding 0.1%).
All experiments were done at least in triplicates.

Sequence of RORγ (P51449 whole entry, looked up, the tested form may be a part): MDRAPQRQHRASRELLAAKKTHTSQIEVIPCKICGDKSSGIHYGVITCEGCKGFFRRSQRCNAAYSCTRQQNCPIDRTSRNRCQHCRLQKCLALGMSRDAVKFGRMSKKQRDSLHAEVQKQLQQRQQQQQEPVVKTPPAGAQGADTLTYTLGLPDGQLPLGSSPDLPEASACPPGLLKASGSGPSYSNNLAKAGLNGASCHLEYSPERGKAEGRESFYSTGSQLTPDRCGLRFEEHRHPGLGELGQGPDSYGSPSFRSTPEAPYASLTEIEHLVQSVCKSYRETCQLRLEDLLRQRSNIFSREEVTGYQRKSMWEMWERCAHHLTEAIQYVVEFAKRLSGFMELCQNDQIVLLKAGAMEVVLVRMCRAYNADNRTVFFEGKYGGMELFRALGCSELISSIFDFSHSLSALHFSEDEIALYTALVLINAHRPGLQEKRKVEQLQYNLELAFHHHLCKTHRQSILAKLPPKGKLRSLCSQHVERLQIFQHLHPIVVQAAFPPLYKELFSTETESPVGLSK

| Structure (SMILES) | pIC50 (FF) | pIC50 (REN) |
| --- | --- | --- |
| CC(C)(C)NS(=O)(=O)c1ccc(-c2sc(C(=O)NC3CCS(=O)(=O)CC3)nc2-c2cccc(C#N)c2)c2ccccc12 [300/15] | nt/7.3/7.4 | nt/7.3/7.4 |
| CC(C)(C)NS(=O)(=O)c1ccc(-c2sc(C(=O)NCC(C)(C)c3noc(=O)[nH]3)nc2CC2CCCCC2)c2ccccc12 [6/60] | nt/8.5/8.7 | nt/8.5/8.7 |
| CC(C)(C)NS(=O)(=O)c1ccc(-c2sc(C(=O)N3CC(S(C)(=O)=O)C3)nc2CC2CCCCC2)c2ccccc12 [6/57] | nt/7.9/8.2 | nt/7.9/8.2 |
| C[C@H](NS(=O)(=O)c1ccc(-c2sc(C(=O)NCC(C)(C)O)nc2CC2CCC2)c(OC(F)(F)F)c1)C(F)(F)F [21/18] | nt/8.0/8.1 | nt/8.0/8.1 |
| CC(C)(C)NS(=O)(=O)c1ccc(-c2sc(C(=O)N[C@H]3C[C@H](C(=O)O)C3)cc2CC2CCCCC2)c2ccccc12 [Example 307, trans-3-(5-(4-(N-(tert-Butyl)sulfamoyl)naphthalen-1-yl)-4-(cyclohexylmethyl)thiophene-2-carboxamido)cyclobutanecarboxylic acid] | nt/8.2/8.3 | nt/8.2/8.3 |
| CC1CCN(C(=O)c2nc(C(=O)NCC(C)(C)O)sc2-c2ccc(S(=O)(=O)NC3(C)CCC3)c3ccccc23)CC1 [304/26] | nt/8.0/7.9 | nt/8.0/7.9 |
| CCC(C)(C)NS(=O)(=O)c1ccc(-c2sc(C(=O)NC3CCS(=O)(=O)CC3)nc2C(=O)N2CCC(C)CC2)c(Cl)c1C [Example 301, 5-(2-Chloro-3-methyl-4-(N-(tert-pentyl)sulfamoyl)phenyl)-N-(1,1-dioxidotetrahydro-2H-thiopyran-4-yl)-4-(4-methylpiperidine-1-carbonyl)thiazole-2-carboxamide] | nt/7.8/7.9 | nt/7.8/7.9 |
| CCC(C)(C)NS(=O)(=O)c1ccc(-c2sc(C(=O)NC3CCS(=O)(=O)CC3)nc2C(=O)N2CCC(C)CC2)c2ccccc12 [304/14] | nt/7.5/7.6 | nt/7.5/7.6 |
| CC(C)(O)CNC(=O)c1nc(C(=O)N2CCCCC2(C)C)c(-c2ccc(S(=O)(=O)NC(C)(C)C)c3ccccc23)s1 [304/6] | nt/6.6/6.8 | nt/6.6/6.8 |
| C[C@H](NS(=O)(=O)c1ccc(-c2sc(C(=O)NCC(C)(C)O)nc2CC2CCC2)c(OC(F)F)c1)C(F)(F)F [21/21] | nt/7.7/7.8 | nt/7.7/7.8 |
| CC(C)(C)NS(=O)(=O)c1ccc(-c2sc(C(=O)NC3CCS(=O)(=O)CC3)nc2CC2CCC2)c(Cl)c1Cl [21/14] | nt/8.3/8.4 | nt/8.3/8.4 |
| CC(C)(C)NS(=O)(=O)c1ccc(-c2sc(C(=O)NC3CCS(=O)(=O)CC3)nc2Cc2cccnc2)c2ccccc12 [300/13] | nt/6.4/6.6 | nt/6.4/6.6 |
| CC(C)(O)CNC(=O)c1nc(CC2CCCCC2)c(-c2ccc(S(=O)(=O)NC(C)(C)C)cc2OC(F)(F)F)s1 [21/8] | nt/7.7/7.8 | nt/7.7/7.8 |
| CC1CCN(C(=O)c2nc(C(=O)NCC(C)(C)O)sc2-c2ccc(S(=O)(=O)NCC(C)(C)C)c3ccccc23)CC1 [304/19] | nt/7.4/7.5 | nt/7.4/7.5 |
| CC1CCN(C(=O)c2nc(C(=O)NCC(C)(C)O)sc2-c2ccc(S(=O)(=O)NCC(F)(F)F)c3ccccc23)CC1 [304/21] | nt/7.4/7.4 | nt/7.4/7.4 |

same assay, conditions: firefly (FF) luciferase, 293T cells

| Structure (SMILES) | pIC50 (FF) |
| --- | --- |
| CC(C)(C)c1cc(-c2nc(C(=O)N[C@H]3C[C@H](C(=O)O)C3)sc2CC2CCCCC2)cc(C2(C)CC2)c1 [Example 25, trans-3-(4-(3-(tert-Butyl)-5-(1-methylcyclopropyl)phenyl)-5-(cyclohexylmethyl)thiazole-2-carboxamido)cyclobutanecarboxylic acid] | nt/6.1/6.1 |

same assay, conditions: firefly (FF) luciferase, 293T cells; read-out: pIC50 (FF) (converted)

| Structure (SMILES) | IC50 [nM] |
| --- | --- |
| CC(C)(C)NS(=O)(=O)c1ccc(-c2sc(C(=O)N[C@H]3C[C@H](C(=O)O)C3)nc2Cc2ccccc2)c2ccccc12 [300/18] | 31.6 |

same assay, conditions: renilla normalised (RENnorm) luciferase, 293T cells

| Structure (SMILES) | pIC50 (REN) |
| --- | --- |
| CC(C)(C)c1cc(-c2nc(C(=O)N[C@H]3C[C@H](C(=O)O)C3)sc2CC2CCCCC2)cc(C2(C)CC2)c1 [Example 25, trans-3-(4-(3-(tert-Butyl)-5-(1-methylcyclopropyl)phenyl)-5-(cyclohexylmethyl)thiazole-2-carboxamido)cyclobutanecarboxylic acid] | nt/6.1/6.1 |

same assay, conditions: renilla normalised (RENnorm) luciferase, 293T cells; read-out: pIC50 (REN) (converted)

| Structure (SMILES) | IC50 [nM] |
| --- | --- |
| CC(C)(C)NS(=O)(=O)c1ccc(-c2sc(C(=O)N[C@H]3C[C@H](C(=O)O)C3)nc2Cc2ccccc2)c2ccccc12 [300/18] | 25.1 |
